Experimental data taken from PubChem BioAssay AID2060616 (Molecular Pharmacology Branch, DTP, NCI, 2025).

Tested on: 377384-186-R-J1-PDC complex spheroid viability
Experiment: Anticancer human tumor 377384-186-R-J1-PDC patient-derived pancreatic carcinoma cell line growth inhibition [CLK]
Details: for IC50: curve of first compound; for viability, T/C: stronger effect = lower value; active = viability on the fitted dose curve at most 10% of control; inactive = the rest
Outline: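 Patient-derived tumor cells grown as complex spheroids with HUVEC endothelial cells and mesenchymal stem cells, treated with drug combinations. Concentrations descend in half-log steps from near clinical Cmax, or from 10 microM if Cmax unknown.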

[1] = second compound 0.0316 µM, first compound 0.0316 µM
[2] = second compound 0.0316 µM, first compound 0.1 µM
[3] = second compound 0.1 µM, first compound 0.0316 µM
[4] = second compound 0.1 µM, first compound 0.1 µM
[5] = second compound 0.316 µM, first compound 0.0316 µM
[6] = second compound 0.316 µM, first compound 0.1 µM
[7] = second compound 1 µM, first compound 0.0316 µM
[8] = second compound 1 µM, first compound 0.1 µM
[9] = second compound 3.16 µM, first compound 0.0316 µM
[10] = second compound 3.16 µM, first compound 0.1 µM
[11] = second compound 10 µM, first compound 0.0316 µM
[12] = second compound 10 µM, first compound 0.1 µM
[13] = second compound 0.0316 µM, first compound 0.316 µM
[14] = second compound 0.0316 µM, first compound 1 µM
[15] = second compound 0.0316 µM, first compound 3.16 µM
[16] = second compound 0.0316 µM, first compound 10 µM
[17] = second compound 0.1 µM, first compound 0.316 µM
[18] = second compound 0.1 µM, first compound 1 µM
[19] = second compound 0.1 µM, first compound 3.16 µM
[20] = second compound 0.1 µM, first compound 10 µM
[21] = second compound 0.316 µM, first compound 0.316 µM
[22] = second compound 0.316 µM, first compound 1 µM
[23] = second compound 0.316 µM, first compound 3.16 µM
[24] = second compound 0.316 µM, first compound 10 µM
[25] = second compound 1 µM, first compound 0.316 µM
[26] = second compound 1 µM, first compound 1 µM
[27] = second compound 1 µM, first compound 3.16 µM
[28] = second compound 1 µM, first compound 10 µM
[29] = second compound 3.16 µM, first compound 0.316 µM
[30] = second compound 3.16 µM, first compound 1 µM
[31] = second compound 3.16 µM, first compound 3.16 µM
[32] = second compound 3.16 µM, first compound 10 µM
[33] = second compound 10 µM, first compound 0.316 µM
[34] = second compound 10 µM, first compound 1 µM
[35] = second compound 10 µM, first compound 3.16 µM
[36] = second compound 10 µM, first compound 10 µM
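Also: spheroids exposed to agents for 7 days before reading.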
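For viability, T/C in this document: luminescence signal used as a stand-in for viable cells.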

Cn1ncnc1[C@H]1c2n[nH]c(=O)c3cc(F)cc(c23)N[C@@H]1c1ccc(F)cc1 + CN1CCN(c2cc(C(=O)Nc3cc4cc(-c5cnn(C)c5)ccc4cn3)ccn2)CC1
< 0.316 nM: IC50 (second compound 0.316 µM) | IC50 (second compound 1 µM) | IC50 (second compound 3.16 µM) | IC50 (second compound 10 µM)
inactive: viability, T/C (second compound 0.0316 µM, first compound 0.000316 µM) 90.4% | viability, T/C (second compound 0.0316 µM, first compound 0.001 µM) 77.8% | viability, T/C (second compound 0.0316 µM, first compound 0.00316 µM) 74.8% | viability, T/C (second compound 0.0316 µM, first compound 0.01 µM) 65.6% | viability, T/C [1] 55.4% | viability, T/C [2] 52.1% | viability, T/C (second compound 0.1 µM, first compound 0.000316 µM) 88.1% | viability, T/C (second compound 0.1 µM, first compound 0.001 µM) 81.2% | viability, T/C (second compound 0.1 µM, first compound 0.00316 µM) 70.4% | viability, T/C (second compound 0.1 µM, first compound 0.01 µM) 58.9% | viability, T/C [3] 53.9% | viability, T/C [4] 46% | viability, T/C (second compound 0.316 µM, first compound 0.000316 µM) 21.2% | viability, T/C (second compound 0.316 µM, first compound 0.001 µM) 23.7% | viability, T/C (second compound 0.316 µM, first compound 0.00316 µM) 25.9% | viability, T/C (second compound 0.316 µM, first compound 0.01 µM) 22.4% | viability, T/C [5] 21.9% | viability, T/C [6] 18.6%
> 100 nM: IC50 (second compound 0.0316 µM)
50 nM: IC50 (second compound 0.1 µM)
active: viability, T/C (second compound 1 µM, first compound 0.000316 µM) 0.86% | viability, T/C (second compound 1 µM, first compound 0.001 µM) 0.77% | viability, T/C (second compound 1 µM, first compound 0.00316 µM) 1.08% | viability, T/C (second compound 1 µM, first compound 0.01 µM) 0.85% | viability, T/C [7] 0.82% | viability, T/C [8] 1.53% | viability, T/C (second compound 3.16 µM, first compound 0.000316 µM) 0.25% | viability, T/C (second compound 3.16 µM, first compound 0.001 µM) 0.59% | viability, T/C (second compound 3.16 µM, first compound 0.00316 µM) 1.07% | viability, T/C (second compound 3.16 µM, first compound 0.01 µM) 0.33% | viability, T/C [9] 0.69% | viability, T/C [10] 0.48% | viability, T/C (second compound 10 µM, first compound 0.000316 µM) 0.45% | viability, T/C (second compound 10 µM, first compound 0.001 µM) 1.52% | viability, T/C (second compound 10 µM, first compound 0.00316 µM) 0.56% | viability, T/C (second compound 10 µM, first compound 0.01 µM) 1.45% | viability, T/C [11] 0.51% | viability, T/C [12] 0.39%

Nc1ccn(C2OC(CO)C(O)C2(F)F)c(=O)n1 (stereo unspecified) + CN1CCN(c2cc(C(=O)Nc3cc4cc(-c5cnn(C)c5)ccc4cn3)ccn2)CC1
active: viability, T/C [1] 7.87% | viability, T/C [2] 4.22% | viability, T/C [13] 5.68% | viability, T/C [14] 2.98% | viability, T/C [15] 2.97% | viability, T/C [16] 2.28% | viability, T/C [3] 9.1% | viability, T/C [4] 4.08% | viability, T/C [17] 3.35% | viability, T/C [18] 3.48% | viability, T/C [19] 2.39% | viability, T/C [20] 1.85% | viability, T/C [6] 6.64% | viability, T/C [21] 4.53% | viability, T/C [22] 3.35% | viability, T/C [23] 2.23% | viability, T/C [24] 2.18% | viability, T/C [7] 1.03% | viability, T/C [8] 0.46% | viability, T/C [25] 1.22% | viability, T/C [26] 0.37% | viability, T/C [27] 0.88% | viability, T/C [28] 1.48% | viability, T/C [9] 0.37% | viability, T/C [10] 0.29% | viability, T/C [29] 0.92% | viability, T/C [30] 0.2% | viability, T/C [31] 0.33% | viability, T/C [32] 0.29% | viability, T/C [11] 0.21% | viability, T/C [12] 0.61% | viability, T/C [33] 0.42% | viability, T/C [34] 0.38% | viability, T/C [35] 0.23% | viability, T/C [36] 0.54%
< 31.6 nM: IC50 (second compound 0.0316 µM) | IC50 (second compound 0.1 µM) | IC50 (second compound 0.316 µM) | IC50 (second compound 1 µM) | IC50 (second compound 3.16 µM) | IC50 (second compound 10 µM)
inactive: viability, T/C [5] 11.6%

O=c1[nH]cc(F)c(=O)[nH]1 + CN1CCN(c2cc(C(=O)Nc3cc4cc(-c5cnn(C)c5)ccc4cn3)ccn2)CC1
active: viability, T/C [7] 1.11% | viability, T/C [8] 0.76% | viability, T/C [25] 1.57% | viability, T/C [26] 1.15% | viability, T/C [27] 0.86% | viability, T/C [28] 1.02% | viability, T/C [9] 0.29% | viability, T/C [10] 0.87% | viability, T/C [29] 1.83% | viability, T/C [30] 0.32% | viability, T/C [31] 0.25% | viability, T/C [32] 0.31% | viability, T/C [11] 0.28% | viability, T/C [12] 0.51% | viability, T/C [33] 0.49% | viability, T/C [34] 0.42% | viability, T/C [35] 0.53% | viability, T/C [36] 1.86%
> 10000 nM: IC50 (second compound 0.1 µM)
7600 nM: IC50 (second compound 0.0316 µM)
< 31.6 nM: IC50 (second compound 0.316 µM) | IC50 (second compound 1 µM) | IC50 (second compound 3.16 µM) | IC50 (second compound 10 µM)
inactive: viability, T/C [1] 121% | viability, T/C [2] 122% | viability, T/C [13] 91.6% | viability, T/C [14] 84.5% | viability, T/C [15] 60.1% | viability, T/C [16] 46.5% | viability, T/C [3] 104% | viability, T/C [4] 107% | viability, T/C [17] 92.2% | viability, T/C [18] 94.4% | viability, T/C [19] 65.4% | viability, T/C [20] 56.1% | viability, T/C [5] 25.5% | viability, T/C [6] 28.4% | viability, T/C [21] 22.2% | viability, T/C [22] 29.3% | viability, T/C [23] 28.3% | viability, T/C [24] 21.5%
